From PubChem BioAssay (NCI)
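Grown in 96-well plates, cells were treated for 48 hours with each compound at five concentrations. Insufficient inhibition: endpoint recorded as highest concentration tested. TGI denotes the concentration required for complete inhibition of growth.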

Key:
Experiment in all cases: inhibition of tumour cell growth, NCI panel, 48 h
[1] = test system: SK-MEL-28 melanoma
[2] = test system: COLO 205 colon
[3] = test system: T-47D breast
[4] = test system: NCI-H460 lung
[5] = test system: MDA-MB-435
[6] = test system: SF-268 CNS
[7] = test system: NCI/ADR-RES ovarian
[8] = test system: MDA-MB-231 breast
[9] = test system: HOP-92 NSCLC
[10] = test system: LOX IMVI melanoma
[11] = test system: SF-539 CNS
[12] = test system: SN12C renal
[13] = test system: SF-295 CNS
[14] = test system: MOLT-4 leukemia
[15] = test system: SK-OV-3 ovarian
[16] = test system: SK-MEL-5 melanoma
[17] = test system: HCC-2998 colon
[18] = test system: K-562 leukemia
[19] = test system: MCF7 breast
[20] = test system: SNB-19 CNS
[21] = test system: ACHN renal
[22] = test system: EKVX NSCLC
[23] = test system: UACC-62 melanoma
[24] = test system: SK-MEL-2 melanoma
[25] = test system: CCRF-CEM leukemia
[26] = test system: A549 NSCLC
[27] = test system: MDA-N
[28] = test system: OVCAR-3 ovarian
[29] = test system: CAKI-1 renal
[30] = test system: BT-549 breast
[31] = test system: UACC-257 melanoma
[32] = test system: OVCAR-8 ovarian
[33] = test system: DU-145 prostate
[34] = test system: RPMI-8226 leukemia
[35] = test system: NCI-H522 lung
[36] = test system: KM12 colon
[37] = test system: HL-60(TB) leukemia
[38] = test system: IGROV1 ovarian
[39] = test system: U251 CNS
[40] = test system: HCT-15 colon
[41] = test system: HT29 colon
[42] = test system: HCT-116 colon
[43] = test system: TK-10 renal
[44] = test system: HS 578T breast
[45] = test system: 786-0 renal
[46] = test system: RXF 393 renal
[47] = test system: M14 melanoma
[48] = test system: NCI-H23 lung
[49] = test system: SW-620 colon
[50] = test system: MALME-3M melanoma
[51] = test system: OVCAR-4 ovarian
[52] = test system: OVCAR-5 ovarian
[53] = test system: A498 renal
[54] = test system: HOP-62 NSCLC
[55] = test system: PC-3 prostate
[56] = test system: NCI-H226 lung
[57] = test system: UO-31 renal
[58] = test system: SR leukemia

For COc1cc([C@@H]2c3cc4c(cc3[C@@H](c3c(O)cc(O)c5c3O[C@H](c3ccc(O)c(O)c3)[C@@H](O)C5)[C@H]3COC(=O)[C@H]23)OCO4)cc(OC)c1O, the TGI [1] was greater than 100 µM, the TGI [2] was greater than 100 µM and the TGI [3] was greater than 100 µM. The TGI [4] was greater than 100 µM, the TGI [5] was greater than 100 µM and the TGI [6] was greater than 100 µM. It also gave a TGI [7] greater than 100 µM, a TGI [8] greater than 100 µM and a TGI [9] greater than 100 µM. It also gave a TGI [10] greater than 100 µM, a TGI [11] greater than 100 µM and a TGI [12] greater than 100 µM. It also gave a TGI [13] greater than 100 µM, a TGI [14] greater than 100 µM and a TGI [15] greater than 100 µM. The TGI [16] was greater than 100 µM, the TGI [17] was greater than 100 µM and the TGI [18] was greater than 100 µM. For the same molecule, the TGI [19] was greater than 100 µM, the TGI [20] was greater than 100 µM and the TGI [21] was greater than 100 µM. The TGI [22] was greater than 100 µM, the TGI [23] was greater than 100 µM and the TGI [24] was greater than 100 µM. For the same molecule, the TGI [25] was greater than 100 µM, the TGI [26] was greater than 100 µM and the TGI [27] was greater than 100 µM. The TGI [28] was greater than 100 µM, the TGI [29] was greater than 100 µM and the TGI [30] was greater than 100 µM. For the same molecule, the TGI [31] was greater than 100 µM, the TGI [32] was greater than 100 µM and the TGI [33] was greater than 100 µM. For the same molecule, the TGI [34] was greater than 100 µM, the TGI [35] was greater than 100 µM and the TGI [36] was greater than 100 µM. For the same molecule, the TGI [37] was greater than 100 µM, the TGI [38] was greater than 100 µM and the TGI [39] was greater than 100 µM. The TGI [40] was greater than 100 µM, the TGI [41] was greater than 100 µM and the TGI [42] was greater than 100 µM. The TGI [43] was greater than 100 µM, the TGI [44] was greater than 100 µM and the TGI [45] was greater than 100 µM. It also gave a TGI [46] greater than 100 µM, a TGI [47] greater than 100 µM and a TGI [48] greater than 100 µM. It also gave a TGI [49] greater than 100 µM, a TGI [50] greater than 100 µM and a TGI [51] greater than 100 µM. For the same molecule, the TGI [52] was greater than 100 µM, the TGI [53] was greater than 100 µM and the TGI [54] was greater than 100 µM. The TGI [55] was greater than 100 µM.
CC(C)(C)OC(=O)C1C(=O)NC(=O)CC1C(COCc1ccccc1)OCc1ccccc1 (stereo not drawn) gave a TGI [1] of 32.1 µM, a TGI [56] of 39.4 µM and a TGI [3] of 38.7 µM. The TGI [5] was 49.7 µM, the TGI [6] was 59.3 µM and the TGI [8] was 36.4 µM. For the same molecule, the TGI [9] was 30.5 µM, the TGI [10] was 34.7 µM and the TGI [11] was 40.6 µM. For the same molecule, the TGI [13] was 43.3 µM, the TGI [14] was 52.9 µM and the TGI [16] was 31.1 µM. The TGI [17] was 47.7 µM, the TGI [18] was greater than 100 µM and the TGI [19] was 57.7 µM. The TGI [20] was greater than 100 µM, the TGI [21] was 50.7 µM and the TGI [22] was 55.5 µM. It also gave a TGI [25] of 77.3 µM, a TGI [57] of 55.8 µM and a TGI [26] greater than 100 µM. The TGI [27] was 36.2 µM, the TGI [28] was 46.3 µM and the TGI [29] was greater than 100 µM. For the same molecule, the TGI [30] was 55.6 µM, the TGI [31] was 41.4 µM and the TGI [32] was greater than 100 µM. The TGI [33] was greater than 100 µM, the TGI [34] was 62.6 µM and the TGI [35] was 35.8 µM. It also gave a TGI [36] of 36.7 µM, a TGI [58] of 64.1 µM and a TGI [37] of 60.6 µM. It also gave a TGI [38] of 52.5 µM, a TGI [39] of 40.2 µM and a TGI [40] of 54.5 µM. It also gave a TGI [41] of 37.1 µM, a TGI [42] of 32.7 µM and a TGI [43] greater than 100 µM. For the same molecule, the TGI [44] was 49.5 µM, the TGI [45] was 45.3 µM and the TGI [47] was 34.8 µM. For the same molecule, the TGI [48] was 92.6 µM, the TGI [49] was 65.1 µM and the TGI [50] was 35.5 µM. It also gave a TGI [52] of 41.1 µM, a TGI [54] of 26.6 µM and a TGI [55] of 27.2 µM.
